Measurements from PMC4111374 (Journal of Medicinal Chemistry, 2014).

Tests used:
[1] = tested on: LS174T colon cancer cells; conditions: earlier report; cited from earlier work
[2] = cited from earlier work
[3] = target: hERG channel (Homo sapiens, UniProt Q12809); conditions: for interaction with hERG: [3H]-dofetilide binding assay; for ratio of IC50 for hERG inhibition to IC50 for inhibition of LS174T cell proliferation: human
[4] = tested on: LS174T colon cancer cells; experiment: LS174T cell proliferation; assay type: cell-based; conditions: for IC50: Homo sapiens, LS174T, read-out: inhibition of LS174T cell proliferation IC50, LS174T colon cancer cells, 1 to 300 nM, triplicate
[5] = water solubility of hydrochloride salts; assay type: physicochemical

hERG channel, sequence (Q12809 whole entry): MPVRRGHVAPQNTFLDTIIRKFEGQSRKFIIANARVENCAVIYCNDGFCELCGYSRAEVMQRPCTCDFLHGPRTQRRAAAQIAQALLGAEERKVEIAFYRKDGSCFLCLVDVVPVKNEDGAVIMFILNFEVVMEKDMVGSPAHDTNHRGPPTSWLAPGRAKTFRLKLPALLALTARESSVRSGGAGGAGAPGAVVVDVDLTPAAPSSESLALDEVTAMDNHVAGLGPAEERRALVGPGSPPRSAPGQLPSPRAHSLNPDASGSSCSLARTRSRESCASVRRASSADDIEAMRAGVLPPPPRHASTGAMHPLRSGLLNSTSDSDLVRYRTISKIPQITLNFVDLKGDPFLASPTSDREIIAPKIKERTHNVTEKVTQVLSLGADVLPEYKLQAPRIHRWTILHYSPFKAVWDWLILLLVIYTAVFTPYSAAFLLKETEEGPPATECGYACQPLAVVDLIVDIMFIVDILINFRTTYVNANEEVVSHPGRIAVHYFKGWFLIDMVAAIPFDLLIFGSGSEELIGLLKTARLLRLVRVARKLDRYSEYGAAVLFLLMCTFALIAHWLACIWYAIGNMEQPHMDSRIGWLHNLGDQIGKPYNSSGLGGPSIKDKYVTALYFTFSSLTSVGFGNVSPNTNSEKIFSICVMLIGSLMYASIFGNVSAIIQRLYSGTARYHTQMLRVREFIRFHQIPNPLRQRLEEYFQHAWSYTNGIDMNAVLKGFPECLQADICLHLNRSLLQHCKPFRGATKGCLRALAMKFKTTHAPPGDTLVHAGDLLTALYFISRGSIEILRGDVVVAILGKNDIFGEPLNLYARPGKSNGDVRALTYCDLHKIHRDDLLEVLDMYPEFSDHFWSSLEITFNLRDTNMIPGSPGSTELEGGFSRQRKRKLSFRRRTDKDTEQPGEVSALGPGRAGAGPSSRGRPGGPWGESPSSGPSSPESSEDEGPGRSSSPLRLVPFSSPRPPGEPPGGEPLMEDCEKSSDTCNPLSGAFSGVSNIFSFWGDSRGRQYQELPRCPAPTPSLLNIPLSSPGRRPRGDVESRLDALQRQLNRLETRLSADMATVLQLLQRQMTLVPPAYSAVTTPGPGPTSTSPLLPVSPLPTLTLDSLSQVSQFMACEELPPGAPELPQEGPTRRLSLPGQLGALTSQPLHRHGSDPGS

Compound	interaction with hERG [3]	ratio of IC50 for hERG inhibition to IC50 for inhibition of LS174T cell proliferation [3]	further results
CN(C)c1ccc(/C=C/c2c(F)cccc2F)cc1 [FIDAS 1a, (E)-4-(2′,6′-difluorostyryl)-N,N-dimethylaniline]	–	–	in vitro activity in LS174T cells [1]: low micromolar range; half-life in vivo [2]: reasonable half-life; oral bioavailability ([2]; in vivo): good oral bioavailability
CNc1ccc(/C=C/c2c(F)cccc2F)cc1 [FIDAS 1b]	did not interact appreciably with hERG	6.5 × 10^3	IC50 [4]: < 10 nM; IC50 for the inhibition of LS174T cells relative to 1a ([4]; LS174T cells): 4 fold
CN(C)c1ccc(/C=C/c2c(F)cccc2Cl)cc1 [FIDAS 2a]	–	–	in vitro activity relative to 3a ([4]; LS174T cells, relative to 3a): 10 fold
CNc1ccc(/C=C/c2c(F)cccc2Cl)cc1 [FIDAS 2b]	did not interact appreciably with hERG	6.6 × 10^3	IC50 [4]: < 10 nM; IC50 for the inhibition of LS174T cells relative to 1a ([4]; LS174T cells): 4 fold
CN(C)c1ccc(/C=C/c2c(F)cccc2Cl)nc1 [FIDAS 5a, (E)-2-(2′-Chloro-6′-fluorostyryl)-5-(N,N-dimethylamino)pyridine]	–	1.0 × 10^3	–
CN(C)c1ccc(/C=C/c2c(F)cccc2Cl)cn1 [FIDAS 8a, (E)-5-(2′-Chloro-6′-fluorostyryl)-2-(N,N-dimethylamino)pyridine]	did not interact appreciably with hERG	12.7 × 10^3	water solubility of hydrochloride salt [5]: water-soluble
CNc1ccc(/C=C/c2c(F)cccc2Cl)cn1 [FIDAS 8b, (E)-5-(2′-Chloro-6′-fluorostyryl)-2-(N-methylamino)pyridine]	did not interact appreciably with hERG	5.0 × 10^3	water solubility of hydrochloride salt [5]: water-soluble
CN(C)c1ncc(/C=C/c2c(F)cccc2F)cn1 [FIDAS 10a, (E)-5-(2′,6′-Difluorostyryl)-2-(N,N-dimethylamino)pyrimidine]	–	0.5 × 10^3	–
